Assay results published in the NIST ThermoML archive (doi:10.1021/je400529k).

Columns and labels:
[1] = xn = mol fraction of the nth substance listed; conditions: 101 kPa, Liquid; for viscosity: Capillary tube (Ostwald / Ubbelohde) method; for mass density: Vibrating tube method
[2] = refractive index (Na D-line) (dimensionless); xn = mol fraction of the nth substance listed; conditions: 101 kPa, Liquid, Standard Abbe refractometry

CC1CCC(C)C(C)C1 (stereo not given) [1,2,4-trimethylcyclohexane] + C1C[C@@H]2[C@H]3CC[C@H](C3)[C@@H]2C1
Conditions | mass density, [1] [kg/m3] | refractive index, [2] | viscosity, [1] [mPa·s]
293.15 K, x2 = 0 | 790.8 | 1.4331 | 0.886
293.15 K, x2 = 0.1 | 804.62 | 1.4381 | 0.986
293.15 K, x2 = 0.1996 | 818.49 | 1.4436 | 1.101
293.15 K, x2 = 0.3002 | 832.73 | 1.449 | 1.23
293.15 K, x2 = 0.4009 | 847.13 | 1.4545 | 1.381
293.15 K, x2 = 0.5001 | 861.44 | 1.4597 | 1.562
293.15 K, x2 = 0.5992 | 875.89 | 1.4651 | 1.759
293.15 K, x2 = 0.6998 | 890.7 | 1.4709 | 2.008
293.15 K, x2 = 0.7997 | 905.51 | 1.476 | 2.277
293.15 K, x2 = 0.9001 | 920.61 | 1.4818 | 2.609
298.15 K, x2 = 0 | 786.92 | – | 0.827
298.15 K, x2 = 0.1 | 800.71 | – | 0.917
298.15 K, x2 = 0.1996 | 814.61 | – | 1.021
298.15 K, x2 = 0.3002 | 828.84 | – | 1.137
298.15 K, x2 = 0.4009 | 843.21 | – | 1.273
298.15 K, x2 = 0.5001 | 857.51 | – | 1.436
298.15 K, x2 = 0.5992 | 871.98 | – | 1.613
298.15 K, x2 = 0.6998 | 886.77 | – | 1.837
298.15 K, x2 = 0.7997 | 901.61 | – | 2.076
298.15 K, x2 = 0.9001 | 916.71 | – | 2.371
303.15 K, x2 = 0 | 783.03 | 1.4285 | 0.774
303.15 K, x2 = 0.1 | 796.8 | 1.4339 | 0.856
303.15 K, x2 = 0.1996 | 810.7 | 1.4392 | 0.95
303.15 K, x2 = 0.3002 | 824.93 | 1.4442 | 1.056
303.15 K, x2 = 0.4009 | 839.3 | 1.4499 | 1.179
303.15 K, x2 = 0.5001 | 853.59 | 1.4554 | 1.326
303.15 K, x2 = 0.5992 | 868.06 | 1.4608 | 1.486
303.15 K, x2 = 0.6998 | 882.85 | 1.4661 | 1.687
303.15 K, x2 = 0.7997 | 897.7 | 1.4718 | 1.901
303.15 K, x2 = 0.9001 | 912.81 | 1.4775 | 2.165
308.15 K, x2 = 0 | 779.13 | – | 0.727
308.15 K, x2 = 0.1 | 792.9 | – | 0.802
308.15 K, x2 = 0.1996 | 806.79 | – | 0.888
308.15 K, x2 = 0.3002 | 821.01 | – | 0.984
308.15 K, x2 = 0.4009 | 835.38 | – | 1.096
308.15 K, x2 = 0.5001 | 849.67 | – | 1.23
308.15 K, x2 = 0.5992 | 864.13 | – | 1.374
308.15 K, x2 = 0.6998 | 878.93 | – | 1.556
308.15 K, x2 = 0.7997 | 893.78 | – | 1.749
308.15 K, x2 = 0.9001 | 908.89 | – | 1.985
313.15 K, x2 = 0 | 775.23 | 1.424 | 0.686
313.15 K, x2 = 0.1 | 788.98 | 1.429 | 0.753
313.15 K, x2 = 0.1996 | 802.87 | 1.4346 | 0.832
313.15 K, x2 = 0.3002 | 817.09 | 1.44 | 0.92
313.15 K, x2 = 0.4009 | 831.45 | 1.4452 | 1.022
313.15 K, x2 = 0.5001 | 845.74 | 1.4508 | 1.144
313.15 K, x2 = 0.5992 | 860.2 | 1.4561 | 1.275
313.15 K, x2 = 0.6998 | 875.01 | 1.4618 | 1.44
313.15 K, x2 = 0.7997 | 889.85 | 1.4676 | 1.615
313.15 K, x2 = 0.9001 | 904.97 | 1.4731 | 1.828
318.15 K, x2 = 0 | 771.32 | – | 0.648
318.15 K, x2 = 0.1 | 785.06 | – | 0.71
318.15 K, x2 = 0.1996 | 798.94 | – | 0.782
318.15 K, x2 = 0.3002 | 813.16 | – | 0.862
318.15 K, x2 = 0.4009 | 827.52 | – | 0.956
318.15 K, x2 = 0.5001 | 841.8 | – | 1.068
318.15 K, x2 = 0.5992 | 856.27 | – | 1.187
318.15 K, x2 = 0.6998 | 871.07 | – | 1.337
318.15 K, x2 = 0.7997 | 885.92 | – | 1.496
318.15 K, x2 = 0.9001 | 901.04 | – | 1.688
